Measured values: ChEMBL document CHEMBL1139120, “Discovery of novel phosphorus-containing steroids as selective glucocorticoid receptor antagonist” (Bioorg Med Chem Lett, 2007)
Values belong to the compound of their own block, whether it stands above or below them. Active and inactive are the calls of the source. The calls are words filed in the database; no cut-off is given here.

Legend:
[1] = tested on: A549; experiment: Selectivity index, Ratio of IC50 for progesterone receptor expressed in human T47 cells to IC50 for glucocorticoid receptor expressed in human A549 cells
[2] = biological target: T1, Glucocorticoid receptor (Homo sapiens, UniProt P04150); experiment: Antagonist activity at glucocorticoid receptor expressed in human A549 cells assessed as inhibition of corticoid-induced transcription by glucocorticoid response element-linked luciferase reporter gene assay; format: functional, cell-based
T1 sequence (P04150 whole entry): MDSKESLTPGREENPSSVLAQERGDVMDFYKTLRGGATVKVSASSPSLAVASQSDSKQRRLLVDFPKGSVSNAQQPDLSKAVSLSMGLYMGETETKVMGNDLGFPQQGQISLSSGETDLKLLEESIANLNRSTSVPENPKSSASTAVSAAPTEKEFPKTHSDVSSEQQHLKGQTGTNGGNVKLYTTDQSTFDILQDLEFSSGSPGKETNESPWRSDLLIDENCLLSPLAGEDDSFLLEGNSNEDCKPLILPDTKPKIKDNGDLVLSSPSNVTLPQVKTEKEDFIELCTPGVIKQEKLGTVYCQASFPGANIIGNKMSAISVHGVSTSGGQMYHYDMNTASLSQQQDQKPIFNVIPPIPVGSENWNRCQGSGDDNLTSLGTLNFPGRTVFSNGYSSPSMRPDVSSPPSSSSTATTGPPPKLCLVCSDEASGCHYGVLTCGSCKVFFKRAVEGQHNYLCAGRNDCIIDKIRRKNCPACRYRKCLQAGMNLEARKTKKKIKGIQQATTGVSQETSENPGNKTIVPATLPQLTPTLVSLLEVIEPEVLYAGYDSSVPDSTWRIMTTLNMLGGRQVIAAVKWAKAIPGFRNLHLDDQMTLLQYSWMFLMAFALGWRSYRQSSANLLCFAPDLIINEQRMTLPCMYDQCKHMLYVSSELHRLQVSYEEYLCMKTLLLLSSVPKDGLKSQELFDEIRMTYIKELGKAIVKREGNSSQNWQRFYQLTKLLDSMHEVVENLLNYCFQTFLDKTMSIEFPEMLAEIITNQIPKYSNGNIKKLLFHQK

[3] = biological target: T2, Progesterone receptor (Homo sapiens, UniProt P06401); experiment: Antagonist activity at progesterone receptor expressed in human T47 cells assessed as blockade of progesterone-induced alkaline phosphatase activity; format: functional, cell-based
T2 sequence (P06401 whole entry): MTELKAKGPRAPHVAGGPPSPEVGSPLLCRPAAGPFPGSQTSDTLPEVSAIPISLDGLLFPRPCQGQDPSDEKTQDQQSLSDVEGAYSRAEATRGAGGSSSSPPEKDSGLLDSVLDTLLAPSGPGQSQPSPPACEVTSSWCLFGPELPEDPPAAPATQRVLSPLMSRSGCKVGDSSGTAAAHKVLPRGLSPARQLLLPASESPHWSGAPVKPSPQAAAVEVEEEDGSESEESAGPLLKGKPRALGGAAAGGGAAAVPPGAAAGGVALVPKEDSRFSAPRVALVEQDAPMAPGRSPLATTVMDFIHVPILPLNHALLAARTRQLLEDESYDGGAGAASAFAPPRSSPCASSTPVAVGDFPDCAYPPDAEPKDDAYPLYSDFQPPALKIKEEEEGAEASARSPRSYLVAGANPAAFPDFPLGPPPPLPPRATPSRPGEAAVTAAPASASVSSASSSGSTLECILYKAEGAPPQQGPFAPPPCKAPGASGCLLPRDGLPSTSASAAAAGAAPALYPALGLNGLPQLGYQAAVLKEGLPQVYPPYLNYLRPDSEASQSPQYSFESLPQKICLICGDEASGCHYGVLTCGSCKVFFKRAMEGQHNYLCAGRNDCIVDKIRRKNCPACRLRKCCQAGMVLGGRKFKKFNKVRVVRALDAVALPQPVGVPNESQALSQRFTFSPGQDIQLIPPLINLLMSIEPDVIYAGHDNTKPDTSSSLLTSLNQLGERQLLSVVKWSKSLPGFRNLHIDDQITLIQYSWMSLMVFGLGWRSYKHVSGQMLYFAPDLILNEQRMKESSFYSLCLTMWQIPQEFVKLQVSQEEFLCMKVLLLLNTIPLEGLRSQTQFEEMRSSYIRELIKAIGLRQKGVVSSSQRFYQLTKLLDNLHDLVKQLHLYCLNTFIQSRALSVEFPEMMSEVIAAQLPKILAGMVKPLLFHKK

[4] = Permeability across Caco-2 cells; format: ADME, cell-based; details: human, read-out: permeability
[5] = Tmax in mouse at 10 mg/kg, po; format: ADME, organism-based; design: dose 10 mg/kg, route oral; details: in vivo
[6] = Tmax in mouse at 2 mg/kg, iv; format: ADME, organism-based; design: dose 2 mg/kg, route intravenous; details: in vivo
[7] = tested on: Mus musculus; experiment: Decrease in plasma glucose level in po dosed ob/ob mouse after 15 days by OGTT; format: functional, organism-based
[8] = Cmax in mouse at 10 mg/kg, po; format: ADME, organism-based; design: dose 10 mg/kg, route oral; details: in vivo
[9] = Oral bioavailability in mouse at 10 mg/kg; format: ADME, organism-based; details: in vivo
[10] = Half life in mouse at 2 mg/kg, iv; format: ADME, organism-based; design: dose 2 mg/kg, route intravenous; details: in vivo
[11] = Cmax in mouse at 2 mg/kg, iv; format: ADME, organism-based; design: dose 2 mg/kg, route intravenous; details: in vivo
[12] = Half life in mouse at 10 mg/kg, po; format: ADME, organism-based; design: dose 10 mg/kg, route oral; details: in vivo
[13] = Clearance in mouse at 2 mg/kg, iv; format: ADME, organism-based; design: dose 2 mg/kg, route intravenous; details: in vivo
[14] = Metabolic stability in rat microsomes assessed as half life; format: ADME, Microsome
[15] = Metabolic stability in dog microsomes assessed as half life; format: ADME, Canis lupus familiaris, Microsome
[16] = Metabolic stability in human microsomes assessed as half life; format: ADME, Microsome
[17] = biological target: hERG (KCNH2) (Homo sapiens, UniProt Q12809); experiment: Inhibition of hERG at 10 uM; format: toxicity
Sequence of hERG (KCNH2) (Q12809 whole entry): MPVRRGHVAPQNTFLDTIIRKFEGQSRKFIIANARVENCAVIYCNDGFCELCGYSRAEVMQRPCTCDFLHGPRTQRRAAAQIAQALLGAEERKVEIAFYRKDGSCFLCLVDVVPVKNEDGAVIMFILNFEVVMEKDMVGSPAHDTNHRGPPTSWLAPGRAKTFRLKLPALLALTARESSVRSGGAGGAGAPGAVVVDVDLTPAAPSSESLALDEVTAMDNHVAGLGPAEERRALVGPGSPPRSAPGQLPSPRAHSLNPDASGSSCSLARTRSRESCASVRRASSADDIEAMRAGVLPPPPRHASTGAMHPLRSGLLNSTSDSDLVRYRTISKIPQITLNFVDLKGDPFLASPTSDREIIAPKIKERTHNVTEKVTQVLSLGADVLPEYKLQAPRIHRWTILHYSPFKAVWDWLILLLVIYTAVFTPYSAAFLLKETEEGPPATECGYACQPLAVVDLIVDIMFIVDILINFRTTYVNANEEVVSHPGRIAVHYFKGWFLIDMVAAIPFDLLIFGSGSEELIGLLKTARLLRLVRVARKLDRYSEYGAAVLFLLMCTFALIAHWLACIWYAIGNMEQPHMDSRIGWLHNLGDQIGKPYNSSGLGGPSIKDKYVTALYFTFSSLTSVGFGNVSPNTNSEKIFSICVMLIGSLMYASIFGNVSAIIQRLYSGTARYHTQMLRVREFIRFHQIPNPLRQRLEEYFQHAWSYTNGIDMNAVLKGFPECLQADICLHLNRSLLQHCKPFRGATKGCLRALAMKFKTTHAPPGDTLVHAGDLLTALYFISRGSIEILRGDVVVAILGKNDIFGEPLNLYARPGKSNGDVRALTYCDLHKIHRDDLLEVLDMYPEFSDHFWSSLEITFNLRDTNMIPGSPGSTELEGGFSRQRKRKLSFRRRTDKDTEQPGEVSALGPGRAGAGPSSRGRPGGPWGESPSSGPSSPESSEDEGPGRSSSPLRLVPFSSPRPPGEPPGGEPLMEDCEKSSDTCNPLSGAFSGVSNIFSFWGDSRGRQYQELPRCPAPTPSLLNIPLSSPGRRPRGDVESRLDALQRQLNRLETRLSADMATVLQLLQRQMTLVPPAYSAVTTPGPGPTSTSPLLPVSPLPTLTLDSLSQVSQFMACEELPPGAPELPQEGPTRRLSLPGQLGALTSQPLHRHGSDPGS

[18] = Metabolic stability in rabbit microsomes assessed as half life; format: ADME, Oryctolagus cuniculus, Microsome
[19] = Metabolic stability in monkey microsomes assessed as half life; format: ADME, Macaca mulatta, Microsome; details: rhesus monkey
[20] = Metabolic stability in mouse microsomes assessed as half life; format: ADME, Microsome

SMILES: C=C1CCO[C@]12CC[C@H]1[C@@H]3CCC4=CC(=O)CCC4=C3[C@@H](c3ccc(P(C)(=O)OCC)cc3)C[C@@]12C (stereo not given in full)
Ratio [1]: 0.027 | Ki [2]: 59.8 nM | IC50 [3]: 1.6 nM

SMILES: C=CC[C@]1(O)CC[C@H]2[C@@H]3CCC4=CC(=O)CCC4=C3[C@@H](c3ccc(P(=O)(OCC)OCC)cc3)C[C@@]21C
Papp [4]: 14.5 ×10⁻⁶ cm/s | Ratio [1]: 30.8 | Ki [2]: 10 nM | IC50 [3]: 308 nM

SMILES: CC#C[C@]1(O)CC[C@H]2[C@@H]3CCC4=CC(=O)CCC4=C3[C@@H](c3ccc(P(=O)(c4ccccc4)c4ccccc4)cc3)C[C@@]21C
Ratio [1]: 127 | Ki [2]: 3 nM | IC50 [3]: 381 nM

SMILES: C=C1CCO[C@]12CC[C@H]1[C@@H]3CCC4=CC(=O)CCC4=C3[C@@H](c3ccc(P(=O)(OCC)OCC)cc3)C[C@@]12C
Ratio [1]: 0.17 | Ki [2]: 56.3 nM | IC50 [3]: 9.9 nM

SMILES: CC#C[C@]1(O)CC[C@H]2[C@@H]3CCC4=CC(=O)CCC4=C3[C@@H](c3ccc(P(=O)(OCC)OCC)cc3)C[C@@]21C
Ratio [1]: 15.7 | Ki [2]: 9 nM | IC50 [3]: 141 nM

More lines, main results first:

IC50 [2]: 10 nM | IC50 [3]: 101 nM
SMILES: CC#C[C@]1(O)CC[C@H]2[C@@H]3CCC4=CC(=O)CCC4=C3[C@@H](c3ccc(P(C)(C)=O)cc3)C[C@@]21C
Ratio [1]: 10.1

Ki [2]: 20 nM | IC50 [3]: 275 nM
SMILES: C[C@]12C[C@H](c3ccc(P(=O)(c4ccccc4)c4ccccc4)cc3)C3=C4CCC(=O)C=C4CC[C@H]3[C@@H]1CC[C@@]2(O)c1ccccc1
Ratio [1]: 13.8

Tmax [5]: 60 min | Tmax [6]: 4.8 min | Cmax [8]: 30 ng/mL | bioavailability [9]: 31% | half-life [10]: 240 min | Cmax [11]: 2800 ng/mL | half-life [12]: 168 min | clearance [13]: 115 mL/min/kg
SMILES: CC#C[C@]1(O)CC[C@H]2[C@@H]3CCC4=CC(=O)CCC4=C3[C@@H](c3ccc(N(C)C)cc3)C[C@@]21C [MIFEPRISTONE]
Activity [7]: Active

Ki [2]: > 3000 nM | IC50 [3]: > 1000 nM
SMILES: C=C1CCO[C@]12CC[C@H]1[C@@H]3CCC4=CC(=O)CCC4=C3[C@@H](c3ccc(P(C)(=O)O)cc3)C[C@@]12C

half-life [14]: > 30 min | Tmax [5]: 120 min | Papp [4]: 2.6 ×10⁻⁶ cm/s | Tmax [6]: 4.8 min | half-life [15]: 21 min | Cmax [8]: 1850 ng/mL | half-life [16]: > 30 min | bioavailability [9]: 59% | half-life [10]: 46.2 min | Ki [2]: 10 nM | IC50 [3]: 763 nM | Cmax [11]: 5290 ng/mL | half-life [18]: 30 min | half-life [12]: 132 min | clearance [13]: 7.98 mL/min/kg | half-life [19]: 8 min | half-life [20]: 28 min
SMILES: C=CC[C@]1(O)CC[C@H]2[C@@H]3CCC4=CC(=O)CCC4=C3[C@@H](c3ccc(P(=O)(c4ccccc4)c4ccccc4)cc3)C[C@@]21C
Activity [7]: Active | Ratio [1]: 76.3 | inhibition at 10 µM [17]: 27.8%

Ki [2]: > 3000 nM | IC50 [3]: > 1000 nM
SMILES: C=C1CCO[C@]12CC[C@H]1[C@@H]3CCC4=CC(=O)CCC4=C3[C@@H](c3ccc(P(=O)(O)OCC)cc3)C[C@@]12C
